Test results: PMC2377083, “IDN 5390: an oral taxane candidate for protracted treatment schedules” (British Journal of Cancer, 2003)
Several values for one entry are separate records, joined by “and”; a condition that tells them apart may be missing. Equal entries are not always repeated. Where two headings read alike, the source gives them in different places.

Assays:
[1] = Pharmacokinetic study, plasma levels by HPLC; format: in vivo, CDF1 mice; details: female, CDF1, mouse
Description: In order to assess the bioavailability of IDN 5390, a pharmaco-kinetic study was performed in female CDF1 mice (Charles River Italia, Calco, Italy). IDN 5390, formulated in Polysorbate 80 and diluted in 0.9% NaCl solution, immediately before treatment, was administered p.o. or i.v. at the dose of 120 mg kg^−1. Blood samples were taken (four mice per group) from the retro-orbital plexus, under diethylether anaesthesia at 5, 15 and 30 min and at 1, 2 and 4 h.
IDN 5390 levels were determined in plasma according to the high-performance liquid chromatography (HPLC) method of [Zaffaroni et al (2002)]. Briefly, plasma samples (0.4 ml) were spiked with 1 μg IDN 5517, as internal standard, and with 0.7 ml of 0.2 M ammonium acetate buffer, pH 4.5, and extracted by solid-phase extraction on a cyano cartridge (Waters, Millford, MA, USA). HPLC analyses were carried out on a Symmetry C18 column (3.5 μm, 4.6 × 150 mm; Waters, London, UK), with UV detection of the analytes at 227 nm. The lower limit of quantitation was of 50 ng ml^−1.
Pharmacokinetic parameters were calculated by using a nonlinear fitting program ([Sacchi-Landriani et al, 1983]). The experimental areas under the concentration–time curve (AUCexp) of IDN 5390 were calculated by the trapezoidal rule. Extrapolations to infinity (AUCinf) were obtained by dividing the concentration at the last experimental points by the elimination constant (Ke). The terminal half-lives (T1/2) were calculated using the formula T1/2=0.693/Ke. Clearance (Clp) and volume of distribution (Vd) were obtained from the following relation: Clp=Dose/AUCext and Vd=Clp/Ke, respectively. The bioavailability (F) was derived from the ratio: F=AUCp.o./AUCi.v. 100.

[2] = tested on: MX-1 mammary tumour xenograft; details: for LCK (1 g) / Max BWL (%) / Tox/Tot / Max TWI%: qd × 4–5/w × 3w
[3] = tested on: human tumour cell lines; format: cell-based
Description: Drugs were dissolved in DMSO and freshly diluted in medium before use. The antiproliferative activity was evaluated on A2780 (human ovarian carcinoma) and its derived drug-resistant cell lines (A2780/DX, A2780/DDP), IGROV-1/Pt1 (human ovarian carcinoma), GBM (human glioblastoma) and MX-1 (human mammary carcinoma). All cell lines, except MX-1, were maintained in RPMI 1640 (Bio-Whittaker, Verviers, Belgium) supplemented with 10% fetal calf serum (Life Technologies, Gaithersburg, MD, USA). MX-1 cells were maintained in McCoy's medium (Life Technologies, Gaithersburg, MD, USA) supplemented with 10% fetal calf serum. For experiments, all cell lines were seeded into six-well plates in duplicate and treated, 24 or 72 h (only MX-1 cells) after seeding, with solvent or different concentrations of taxanes. Adherent cells were counted 72 h after the beginning of treatment, by a cell counter (Coulter Electronics, Luton, UK) or detected by the Sulforhodamine B colorimetric assay (only GBM cells). The IC50 was defined as the drug concentration causing a 50% decrease in cell number over that of untreated controls.

[4] = tested on: tubulin; test: Tubulin polymerisation assay in IGROV-1/Pt1 cells; format: cell-based, human; details: 24 h
Description: For tubulin polymerisation assay, IGROV-1/Pt1 cells were treated with PTX or IDN 5390 at the indicated concentrations for 24 h. Cells were then processed as previously described ([Cassinelli et al, 2001]) in order to separate cellular fractions containing soluble cytosolic or polymerised cytoskeletal tubulin. Samples were electrophoresed by sodium dodecyl sulphate (SDS)–PAGE (10% resolving gel and 3% stacking gel) and blotted onto nitrocellulose membranes. The distribution of tubulin was analysed by immunoblotting, using a rabbit polyclonal antitubulin antibody (BioMakor, Revohot, Israel).

[5] = tested on: INT.ACP/PTX PTX-resistant ovarian tumour xenograft; test: Antitumour activity on INT.ACP/PTX xenograft; details: p.o.
Description: (§1) All the experiments were carried out using female athymic nude CD-1 mice, 8–11 weeks old (Charles River, Calco, Italy). The mice were maintained in laminar flow rooms with constant temperature and humidity.
(§2) Taxanes were dissolved by adding absolute ethanol and Cremophor ELP (both 5% of the final volume), in that sequence, on a magnetic stirrer. […] After dilution, the drug solutions were always kept on ice. […] (Milano, Italy) and, just before use, it was diluted, by slowly adding 0.9% NaCl and occasionally stirring the solution (final Polysorbate 80: 10%, v v^−1). […] When higher doses were to be given, larger volumes were injected.
(§3) Tumour lines were maintained in vivo by successive s.c. transplants of tumour fragments in animal flanks.
(§4) For chemotherapy experiments, tumour fragments (about 2 × 2 × 2 mm), obtained from tumour lines, were implanted s.c. Each control or drug-treated group included five or six mice bearing bilateral s.c. tumours. Tumours were implanted on day 0, and tumour growth was followed by biweekly measurements of tumour diameters with a vernier caliper. Tumour weight (TW) was calculated according to the formula: TW (mg)=tumour volume (mm^3)=d^2 × D/2, where d and D are the shortest and the longest diameter, respectively. Different treatment routes (i.v., s.c. or p.o.) and schedules (daily or intermittent) were investigated. […] Control mice were injected with the solvent solution.
(§5) Experimental groups were eliminated when mean TW was about 1.5±0.5 g, or after 100 days.
(§6) For statistical analysis, tumour weights in different groups of treated mice were compared on day of TWI% evaluation, by Student's t-test (two-tailed). P⩽0.05 was considered significant.
(§7) The tolerability of the compound was assessed in tumour-bearing mice as follows: (a) lethal toxicity, that is, any death in treated mice without or with small (⩽300 mg) tumours, or occurring before any control death; (b) body weight loss % (BWL%)=100–(BW on day x/BW on day 1 × 100), where x represents a day after or during the treatment period. The maximal BWL values are reported; and (c) vesicant toxicity defined as the appearance of ulcers and/or inflammation at the injection site where the drugs were delivered s.c.

[6] = tested on: bFGF; test: bFGF expression in GBM cells, immunoblotting; details: 72 h at IC80: IDN 5390 40, PTX 17 ng ml^−1
[7] = tested on: IGROV-1 PTX-resistant ovarian tumour xenograft; test: Antitumour activity on IGROV-1 xenograft; details: p.o., qd × 5/w × 3w, 120 mg kg^−1
Description: as §1, §2, §3, §4, §5, §6, §7

[8] = 2 × 90 mg kg^−1 p.o., up to 5 weeks, 50 treatments
[9] = qd × 5/w × 2w, 2 × 120 mg kg^−1

With `CC(=O)O[C@@]1([C@@H]2/C(C)=C(/O)C(=O)C3=C(C)[C@@H](OC(=O)[C@H](O)[C@H](CC(C)C)NC(=O)OC(C)(C)C)C[C@@](O)([C@H]2OC(=O)c2ccccc2)C3(C)C)CO[C@@H]1CCO` [IDN 5390, 13-(N-Boc-β-isobutylisoserinyl)-10β-dehydro-C-seco-10-deacetylbaccatin III] the bioavailability ([1]; in vivo, bioavailability (F)) was 27.3%, the Vd ([1]; in vivo, iv) was 0.21 and the AUC ([1]; in vivo, iv, 120 mg/kg) was 125000 ng·h/mL. It also gave an AUC(0-inf) ([1]; in vivo, iv, 120 mg/kg) of 128000 ng·h/mL, a Cmax ([1]; in vivo, iv, 120 mg/kg) of 161 µg/mL and a Tmax ([1]; in vivo, iv, 120 mg/kg) of 5 min. It also gave a clearance ([1]; in vivo, iv, 120 mg/kg) of 15.5 mL/min/kg, a half-life ([1]; in vivo, iv, 120 mg/kg) of 54 min and an AUC ([1]; in vivo, po, 120 mg/kg) of 34400 ng·h/mL. It also gave an AUC(0-inf) ([1]; in vivo, po, 120 mg/kg) of 35100 ng·h/mL, a Cmax ([1]; in vivo, po, 120 mg/kg) of 25 µg/mL and a Tmax ([1]; in vivo, po, 120 mg/kg) of 30 min. The half-life ([1]; in vivo, po, 120 mg/kg) was 42 min, the half-life ([1]; plasma, 120 mg kg^−1, in mice, read-out: T1/2) was less than 60 min and the antitumour efficacy ([2]; 30 mg kg^−1 p.o. twice a day, start when tumours averaged 100 mg) was “not very effective”. The “tumours exhibiting CR at the end of the experiment” value ([2]; 2 × 90 mg kg^−1 p.o., 5 weeks, end of the experiment (100 days)) was “six out of 10”, the lethal toxicity [2, 8] was “no lethal toxicity” and the “max BWL” value [2, 8] was 11%. For the same compound, the “LCK (1 g)” value ([2]; p.o., 120 mg kg^−1, from day 1) was 1.1, the “Max BWL (%)” value ([2]; p.o., 120 mg kg^−1, from day 1) was 5% and the Tox/Tot ([2]; p.o., 120 mg kg^−1, from day 1) was 0/5. The “Max TWI%” value ([2]; p.o., 120 mg kg^−1, from day 1, day 25) was 82(25) %, the TWI ([2]; s.c., all doses, after 3 weeks of treatment) was greater than 80% and the “LCK (1 g)” value ([2]; s.c., 60 mg kg^−1, from day 1) was 1.4. The “Max BWL (%)” value ([2]; s.c., 60 mg kg^−1, from day 1) was 3%, the Tox/Tot ([2]; s.c., 60 mg kg^−1, from day 1) was 0/3 and the “Max TWI%” value ([2]; s.c., 60 mg kg^−1, from day 1, day 29) was 83(29) %. The “LCK (1 g)” value ([2]; s.c., 90 mg kg^−1, from day 1) was 2.7, the “Max BWL (%)” value ([2]; s.c., 90 mg kg^−1, from day 1) was 3.5% and the Tox/Tot ([2]; s.c., 90 mg kg^−1, from day 1) was 0/5. The “Max TWI%” value ([2]; s.c., 90 mg kg^−1, from day 1, day 29) was 97(29) %, the “LCK (1 g)” value ([2]; s.c., 120 mg kg^−1, from day 1) was 1.7–3.1 and the “Max BWL (%)” value ([2]; s.c., 120 mg kg^−1, from day 1) was 6–7.5%. For the same compound, the Tox/Tot ([2]; s.c., 120 mg kg^−1, from day 1) was 1/10, the “Max TWI%” value ([2]; s.c., 120 mg kg^−1, from day 1, day 25, P<0.05 vs p.o.) was 93–96 ^*(25) % and the “reduction of cytotoxicity as compared to PTX” value [3] was 2–3 fold. The tubulin polymerisation ([4]; equitoxic concentrations (IC80): IDN 5390 300, PTX 100 ng ml^−1) was “comparable extent of tubulin polymerisation”, the tubulin polymerisation ([4]; same concentration (100 ng ml^−1), vs PTX) was “less effective than the parent drug” and the “LCK (1 g)” value ([5]; qd × 5/w × 2w, 180 mg kg^−1) was 1.9. The “Max BWL (%)” value ([5]; qd × 5/w × 2w, 180 mg kg^−1) was 10%, the Tox/Tot ([5]; qd × 5/w × 2w, 180 mg kg^−1) was 2/5 and the “TWI% (day 27)” value ([5]; qd × 5/w × 2w, 180 mg kg^−1, P<0.05 vs 2 × 90 mg kg^−1) was 96% and 96 ^* %. The “LCK (1 g)” value [5, 9] was 1.4, the “Max BWL (%)” value [5, 9] was 15% and the “TWI% (day 27)” value [5, 9] was 87%. For the same compound, the Tox/Tot [5, 9] was 1/5, the “LCK (1 g)” value ([5]; qd × 5/w × 3w, 2 × 90 mg kg^−1) was 0.8 and the “Max BWL (%)” value ([5]; qd × 5/w × 3w, 2 × 90 mg kg^−1) was 9%. The “TWI% (day 27)” value ([5]; qd × 5/w × 3w, 2 × 90 mg kg^−1) was 66%, the Tox/Tot ([5]; qd × 5/w × 3w, 2 × 90 mg kg^−1) was 0/6 and the bFGF expression [6] was “downregulated”. For the same compound, the “LCK (1 g)” value [7] was 2.2, the “Max BWL (%)” value [7] was 13% and the “TWI% (day 27)” value [7] was 73%. For the same compound, the Tox/Tot [7] was 0/4.
